Laboratory results reported in patent US12226432B2, “Polymer nanoparticle, polymer composition, method of making a polymer nanoparticle, method for treatment of bacterial biofilms, and method for detection of bacterial biofilms” (UNIVERSITY OF MASSACHUSETTS, priority 2016, dated 2025).

Assays:
[1] = tested on: uropathogenic E. coli (CD-2); assay type: cell-based; conditions: serial passaging at sub-MIC, CD-2 E. coli
Experimental: The culture was then harvested and tested for MIC as describe above. E. coli CD-2 was cultured without polymer as well every time as a control for comparison of MICs.
Bacteria are capable of acquiring resistance quickly towards antibiotics and other antimicrobials, minimizing their therapeutic prospects in clinical settings. […] The resulting bacterial population was defined as the first generation, harvested, and its MIC was evaluated. Subsequently, a second generation was produced by exposing first generation with 66% MIC dosage of polymers. […] Similar experiments were conducted on ciprofloxacin (quinolone) and ceftazidime ([…]), clinically relevant antibiotics.

[2] = tested on: E. clocae complex CD-1412; experiment: Checkerboard titration, antibiotic-nanoparticle synergy, CD-1412; assay type: cell-based, E. cloacae; conditions: in combination with polymer nanoparticles, FIG. 20
Experimental: (§1) To assess possible synergy between antibiotics and polymeric nanoparticles, two-dimensional checkerboard titrations were performed using a micro-dilution method. […] The checkerboard titrations were performed in a set of three independent experiments, repeated on different days.
(§2) Antibiotic-nanoparticle interaction was determined by calculating the fractional inhibitory concentration of antibiotics (FICAb) and NPs (FICNP) according to the following equations: FICAb=(MIC of antibiotic and NP combination)÷(MIC of antibiotic alone) FICNP=(MIC of antibiotic and NP combination)÷(MIC of NP alone) FICIcombination=FICAb+FICNP
(§3) FICAb was plotted against FICNP. A concave curve indicates synergy, whereas a convex curve indicates antagonism. Synergy was defined as FICI values ≤0.5, antagonism by FICI values >4.0, and additive interaction by FICI values between >0.5 and 4.0. The experiments were conducted across four different planktonic bacteria strains (E. clocae complex “CD-1412”; Pseudomonas aeruginosa “CD-40”; E. coli “CD-549”; and Acinetobacter species “CD-575”). […] In the presence of polymer nanoparticles, colistin's uptake in biofilms is enhanced nearly 3.5 times.

[3] = tested on: Pseudomonas aeruginosa CD-40; experiment: Checkerboard titration, antibiotic-nanoparticle synergy, CD-40; assay type: cell-based; conditions: in combination with polymer nanoparticles, FIG. 20
Experimental: as §1, §2, §3

E. coli CD-549 = experiment: Checkerboard titration, antibiotic-nanoparticle synergy, CD-549; assay type: cell-based; conditions: in combination with polymer nanoparticles, FIG. 20
Experimental: as §1, §2, §3

[4] = tested on: Acinetobacter species CD-575; experiment: Checkerboard titration, antibiotic-nanoparticle synergy, CD-575; assay type: cell-based; conditions: in combination with polymer nanoparticles, FIG. 20
Experimental: as §1, §2, §3

red blood cells (RBCs) = experiment: Hemolysis of red blood cells (HC50); assay type: cell-based, human
Experimental: Determination of Hemolysis of Cationic Polymers: Citrate-stabilized human whole blood (pooled, mixed gender) was purchased from Bioreclamation LLC, NY and processed as soon as received. 10 milliliters of phosphate buffered saline (PBS) was added to the blood and centrifuged at 5000 rpm for 5 minutes. The supernatant was carefully discarded and the red blood cells (RBCs) were dispersed in 10 milliliters of PBS. This step was repeated at least five times. The purified RBCs were diluted in 10 milliliters of PBS and kept on ice during the sample preparation. 0.1 milliliter of RBC solution was added to 0.4 milliliters of polymer solution in PBS in a 1.5 milliliter centrifuge tube (Fisher) and mixed gently by pipetting. RBCs incubated with PBS and water was used as negative and positive controls, respectively. All polymer samples as well as controls were prepared in triplicate. The mixture was incubated at 37° C. for 30 minutes while shaking at 150 rpm. After incubation period, the solution was centrifuged at 4000 rpm for 5 minutes and 100 microliters of supernatant was transferred to a 96-well plate. The absorbance value of the supernatant was measured at 570 nm using a microplate reader (SpectraMax M2, Molecular devices) with absorbance at 655 nm as a reference. The percent hemolysis was calculated using the following formula: […]

NIH 3T3 fibroblast cells = assay type: cell-based
Experimental: The ability to eradicate biofilms on human tissue or organs is also of significant importance. An in vitro co-culture model of mammalian fibroblast cells with biofilms grown over them was used. […] Next, P. aeruginosa bacteria was seeded on a confluent monolayer of NIH 3T3 fibroblast cells overnight to generate biofilms prior to treatment.

CC(C)(O/N=C(\C(=O)N[C@@H]1C(=O)N2C(C(=O)[O-])=C(C[n+]3ccccc3)CS[C@H]12)c1csc(N)n1)C(=O)O [ceftazidime]
increase in the MICs after serial passaging [1]: 4,200 fold

O=C(O)c1cn(C2CC2)c2cc(N3CCNCC3)c(F)cc2c1=O [ciprofloxacin]
increase in the MICs after serial passaging [1]: 33,000 fold

colistin
antibiotic-nanoparticle interaction (FICI) [2]: therapeutically synergistic | antibiotic-nanoparticle interaction (FICI) [3]: therapeutically synergistic | antibiotic-nanoparticle interaction (FICI) (E. coli CD-549): therapeutically synergistic | antibiotic-nanoparticle interaction (FICI) [4]: therapeutically synergistic

poly(oxanorbomeneimide)undecyl trimethylammonium analog [Example 5]
HC50 (red blood cells (RBCs)): 4700 µg/mL | toxicity to NIH 3T3 fibroblast cells (NIH 3T3 fibroblast cells): No significant toxicity
